According to patent US20260224582A1, “Heterobicyclic amides as inhibitors of CD38” (Cerevance, Inc., priority 2022, published 2026):

Experiments:
[1] = target: T1, Recombinant mouse CD38 (Mus musculus, UniProt P56528); test: Mouse CD38 hydrolase assay (fluorescence-based, ε-NAD substrate); format: biochemical; details: recombinant mouse CD38 0.4 nM, 12 μM ε-NAD, 30 min preincubation at 25° C.
T1 sequence (P56528 1-304): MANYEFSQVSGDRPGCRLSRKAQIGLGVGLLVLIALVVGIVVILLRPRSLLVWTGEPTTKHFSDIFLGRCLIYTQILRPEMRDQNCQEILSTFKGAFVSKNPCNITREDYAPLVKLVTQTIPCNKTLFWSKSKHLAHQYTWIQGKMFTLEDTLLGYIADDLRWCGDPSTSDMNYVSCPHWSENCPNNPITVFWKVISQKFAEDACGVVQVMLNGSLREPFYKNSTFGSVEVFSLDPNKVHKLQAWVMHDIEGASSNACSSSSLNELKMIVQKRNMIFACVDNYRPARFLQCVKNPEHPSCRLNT
Protocol: The ability of test compounds to inhibit mouse CD38 hydrolase activity was measured in a fluorescence-based assay using non-physiological NAD^+ substrate analogue 1,N^6-etheno NAD^+ (&-NAD). Recombinant mouse CD38 (0.4 nM) was preincubated with test compounds in 384-well black microplates for 30 min at 25° C. in PBS (—Ca^2+/Mg^2+) containing 0.005% BSA (pH 7.4). CD38 hydrolase activity was initiated by addition of 12 μM ε-NAD, which yields the fluorescent product 1,N^6-etheno ADP-ribose. Formation of fluorescent product was followed using ClarioStar Plus (BMG) microplate reader by reading fluorescence (excitation λ=300 nm; emission λ=410 nm) at two time points, one immediately after substrate addition (t=0) and one at 6 min (t=6).
Data was analysed by subtracting the values detected at t=0 from t=6 to correct for variation in baseline fluorescence. Fluorescence values were converted to percent inhibition using the average of high signal (CD38 and ε-NAD) and low signal (CD38 and ε-NAD in the presence of a tool CD38 inhibitor) control wells. IC50 values were determined from a 10-point, halflog concentration response curve with a four-parameter logistic equation.

[2] = target: T2, Recombinant human CD38 (Homo sapiens, UniProt P28907); test: Human CD38 hydrolase assay (fluorescence-based, ε-NAD substrate); format: biochemical; details: recombinant human CD38 0.8 nM, 4 μM ε-NAD, 30 min preincubation at 25° C.
T2 sequence (P28907 1-300): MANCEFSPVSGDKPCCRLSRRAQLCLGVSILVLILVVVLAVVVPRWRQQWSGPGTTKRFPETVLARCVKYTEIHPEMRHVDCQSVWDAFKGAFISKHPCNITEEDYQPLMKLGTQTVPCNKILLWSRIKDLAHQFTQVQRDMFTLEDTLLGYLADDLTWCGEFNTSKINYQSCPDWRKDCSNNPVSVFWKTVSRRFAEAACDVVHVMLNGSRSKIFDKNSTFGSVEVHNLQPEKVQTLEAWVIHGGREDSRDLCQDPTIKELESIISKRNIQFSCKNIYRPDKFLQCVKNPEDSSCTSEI
Protocol: The ability of test compounds to inhibit human CD38 hydrolase activity was measured in a fluorescence-based assay using non-physiological NAD^+ substrate analogue 1,N^6-etheno NAD^+ (ε-NAD). Recombinant human CD38 (0.8 nM) was preincubated with test compounds in 384-well black microplates for 30 min at 25° C. in PBS (—Ca^2+/Mg^2+) containing 0.005% BSA (pH 7.4). CD38 hydrolase activity was initiated by addition of 4 μM ε-NAD, which yields the fluorescent product 1,N^6-etheno ADP-ribose. Formation of fluorescent product was followed using ClarioStar Plus (BMG) microplate reader by reading fluorescence (excitation λ=300 nm; emission λ=410 nm) at two time points, one immediately after substrate addition (t=0) and one at 10 min (t=10). Data was analysed by subtracting the values detected at t=0 from t=10 to correct for variation in baseline fluorescence. Fluorescence values were converted to percent inhibition using the average of high signal (CD38 and ε-NAD) and low signal (CD38 and ε-NAD in the presence of a tool CD38 inhibitor) control wells. IC50 values were determined from a 10-point, half log concentration response curve with a four-parameter logistic equation.

IC50 [1] | IC50 [2] | Compound
≤ 40 nM | ≤ 1000 nM | CC(F)(F)CN[C@H]1CC[C@H](NC(=O)c2cn3ncnc3c(-n3ccnc3)n2)CC1 [Example 57, N-((1r,4r)-4-((2,2-difluoropropyl)amino)cyclohexyl)-8-(1H-imidazol-1-yl)-[1,2,4]triazolo[1,5-a]pyrazine-6-carboxamide]
≤ 40 nM | ≤ 100 nM | O=C(N[C@H]1CC[C@H](N2CC[C@@H](F)C2)CC1)c1nc(-n2ccnc2)nc2ncccc12 [Example 58, N-((1R,4r)-4-((R)-3-fluoropyrrolidin-1-yl)cyclohexyl)-2-(1H-imidazol-1-yl)pyrido[2,3-d]pyrimidine-4-carboxamide]
≤ 40 nM | ≤ 40 nM | O=C(N[C@H]1CC[C@H](NCC(F)(F)F)CC1)c1nc(-n2ccnc2)cn2ncnc12 [Example 59, 6-(1H-imidazol-1-yl)-N-((1r,4r)-4-((2,2,2-trifluoroethyl)amino)cyclohexyl)-[1,2,4]triazolo[1,5-a]pyrazine-8-carboxamide]
≤ 40 nM | ≤ 40 nM | N-((1r,4r)-4-((2,2-difluoroethyl)amino)cyclohexyl)-2-(1H-imidazol-1-yl)pyrido[2,3-d]pyrimidine-4-carboxamide [Example 33]
